Experimental data: ChEMBL document CHEMBL1132326, “Synthesis and dopamine receptor modulating activity of substituted bicyclic thiazolidine lactam peptidomimetics of L-prolyl-L-leucyl-glycinamide” (1999)

Assays:
Rattus norvegicus [1] = assay: Effect on rotational behavior in rat after i.p. administration of 1 ug/kg; format: functional
Rattus norvegicus [2] = assay: Effect on rotational behavior in rat after i.p. administration of 0.1 ug/kg; format: functional

Row | Structure (SMILES) | Increase (Rattus norvegicus [1]) [%] | Increase (Rattus norvegicus [2]) [%]
1 | NC(=O)[C@H]1CS[C@@H]2C[C@@](Cc3ccccc3)(NC(=O)[C@@H]3CCCN3)C(=O)N12 | 30 | –
2 | CC(C)C[C@@]1(NC(=O)[C@@H]2CCCN2)C[C@H]2SC[C@H](C(N)=O)N2C1=O | 44 | –
3 | NC(=O)[C@H]1CS[C@@H]2C[C@@H](NC(=O)[C@@H]3CCCN3)C(=O)N12 | – | 23
4 | CCCC[C@@]1(NC(=O)[C@@H]2CCCN2)C[C@H]2SC[C@H](C(N)=O)N2C1=O | – | 56
